# Results: patent US9133146B2, “Benzodioxane inhibitors of leukotriene production” (Boehringer Ingelheim International GmbH, priority 2011, dated 2015)
# System: synthesis of LTB4 in human whole blood
# Experiment: human whole blood (HWB) assay, LTB4 production inhibition after calcimycin
# Format: cell-based
# Details: heparinized human whole blood, calcimycin 20 μM, 37° C., plasma LTB4
# Description: The compounds of the invention are additionally tested in a human whole blood (HWB) assay to determine their ability to inhibit the synthesis of LTB4 in a cellular system. Compounds are combined with heparinized human whole blood and incubated for 15 minutes at 37° C. Calcimycin (20 μM final, prepared in phosphate-buffered saline, pH 7.4) is then added and the mixture is incubated for another 30 minutes at 37° C. The samples are centrifuged for 5 min at low speed (1500×g) and the plasma layer is removed. Plasma LTB4 concentrations are then measured using an antibody-based homogenous time-resolved fluorescence method (CisBio, Bedford, Mass.). In general, the preferred potency range (IC50) of compounds in the HWB assay is between 10 nM to 10 μM, the more preferred potency range is 10 nM to 1 μM, and the most preferred potency range is 10 nM to 100 nM.
row,IC50,SMILES
1,91.1 nM,"CC(C)(O)C(=O)NC1CCN(Cc2ccc([C@H]3COc4ccccc4O3)cc2)CC1 [Example 220, N-(1-{4-[(2S)-2,3-dihydro-1,4-benzodioxin-2-yl]benzyl}piperidin-4-yl)-2-hydroxy-2-methylpropanamide]"
2,285 nM,"O[C@@H]1CCN(Cc2ccc(C3COc4ccccc4O3)cc2)C1 (mixture of isomers) [Example 9, (3S)-1-[4-(2,3-dihydro-1,4-benzodioxin-2-yl)benzyl]pyrrolidin-3-ol]"
3,305 nM,"c1ccc2c(c1)OC[C@H](c1ccc(CN3CCC[C@H]4CCCCC43)cc1)O2 (stereo in doubt) [Example 85, (4aR,8aS)-1-{4-[(2S)-2,3-dihydro-1,4-benzodioxin-2-yl]benzyl}decahydroquinoline]"

row,SMILES,IC50
1,"c1cnc2c(c1)OC[C@H](c1ccc(CN3[C@H]4CC[C@@H]3CC4)cc1)O2 [Example 145, (3S)-3-{4-[(1s,4s)-7-azabicyclo[2.2.1]hept-7-ylmethyl]phenyl}-2,3-dihydro[1,4]dioxino[2,3-b]pyridine]",28.4 nM
